Laboratory results: patent US20090258030A1, “Materials and Methods for Improving Livestock Productivity” (priority 2006, published 2009)
Where a name gives a salt, the structure may show the parent alone. Marks after values point to notes of the source that are not given here.

How the values were obtained:
[1] = Intestine villi length and histology in pigs (Example 4); assay type: in vivo, swine; settings: 150 g of cysteamine hydrochloride per ton of feed; 30 days
Procedure: 72 piglets were evenly divided into control group and Cysteamine group. The control group was treated with basal diet only, while the Cysteamine group was added with 150 g of cysteamine hydrochloride per ton of feed. The trial was lasted for 30 days.
Immediately after evisceration, tissue samples from the small intestine, large intestine, liver, and pancreas of pigs from each treatment group were collected. The collected samples were placed in properly labeled containers containing 10% buffered neutral formalin solution. The tissue samples were fixed for 78 hours before they were processed for routine histological examination using the paraffin embedding technique (well-known to the skilled artisan).
Sections approximately 5 to 6μ thick were cut from paraffin blocked tissues using Optical 820 Rotary Microtome (Scientific Instruments Division, Buffalo, N.Y.). Some sections were stained with hematoxylin and eosin (H & E), others with Alcian blue. H & E stained sections were used for the examination of the general histology of the intestinal tract while the Alcian blue stained sections were used for goblet cells identification. The stained sections were examined under various magnifications using a light microscope.
The number and length (μm) of villi in the small intestine were counted per microscopic field; the thickness of the tunica muscularis in the small and large intestine were measured using American Optical Micrometer (American Optical Company, Buffalo, N.Y.) calibrated in millimeters. The mucosal folds in the large intestine, the density of intestinal glands (crypts), the appearance of the surface epithelium were all observed. The general histology of the liver and pancreas were examined and compared between Cysteamine treated and non-Cysteamine treated groups. Goblet cell density in the Cysteamine treated and non-Cysteamine treated pigs was compared through visual examination using light microscope.

[2] = Daily weight gain and feed conversion rate of beef cattle (Example 5); assay type: in vivo, beef cattle (Ximenta'er hybridizing beef cattle)
Procedure: In the following example, the test animals were beef cattle (Ximenta'er hybridizing beef cattle). The experiment was performed at the Hebei Hengshui Geling Beef Cattle Raising Farm dur the period from Oct. 10 to Dec. 21, 2002. In total, 64 heads of around 350 kg Ximenta'er hybridizing beef cattle were selected and separated into 4 groups randomly according to the principle of equalizing age, weight, grace, fur/hair condition, etc. Each group had 16 heads of beef cattle. The Control Group, Test Group I, II & III were fed a composition comprising 0, 1.5, 3, 6 g/head/day of cysteamine HCl, respectively. As noted in Tables 8, 9, and 10 below, adding a cysteamine compound to the basal diet of beef cattle can increase daily weight gain.

[3] = Efficacy of cysteamine hydrochloride on sow and their weaning piglets performance (Example 9); assay type: in vivo, swine (crossbred Yolkshire and Lanrace sows); settings: for Total of pigs born: 10 sows from 84 days gestation; for Av. of milk yield, L/d: calculated from average daily gain of piglets × 4 × no of piglets in each litter; for Total number of piglets at weaning: weaned at 21 days
From the text: All sows used in the experiment were crossbred (Yolkshire and Lanrace) selected from the 3rd and the 4^Th (ratio 4:6) pregnancy. Thirty sows (84 days gestation) were equally allocated into three treatments and each treatment of sows were divided into 10 replications with each sow per replication.
Cysteamine Hydrochloride was included to sow feeds at 135 ppm or 190 ppm. The diets were fed in mash form, water was allowed ad libitum. Litter size, litter weights, number of piglets born alive and weaned were recorded. Morbidity, incidence of diarrhea and mortality rates were recorded. Piglet's uniformity was accounted as percentage units that fell into two times of standard deviation based on average weaning live weight. The piglets from each sow were weaned at 21 days of age. On day 109 of gestation, sows were moved to farrowing units and were weight after farrowing and also weighed again after lactation. Back fat losses were measured every weeks during lactation period by using Renco Lean-Meter (Ultrasound for Ultra-profits, Renco Corporation, Minnesota, 55401, USA). Sows were fed about 2 kg/day during 16-84 days, 3 kg/day until farrowing and fed ad libitum during lactation period.
All sows were housed in cages adjacent to the boar's area and serviced by artificial insemination twice at 18 hours interval with the checked quality semen of the same boar. After 1 week service, they were weighed and moved to individual gestation cages. Five days prior to the date of parturition, they were moved to the farrowing units for setting in and staying till piglets weaning. After piglets weaning each sow was moved again to the service area.
All sows and piglets were subject to the usual vaccination program, antiparasitic treatment, iron injection and tail docking for piglets. An individual treatment was done if a disease or injury was developed during the trial, under the authority of the veterinary in charge of the farm animal health.

[4] = T2: 0.0135 (135 ppm in sow feed)
[5] = T3: 0.019 (190 ppm in sow feed)

What does the source list for `NCCS` [Cysteamine Hydrochloride, cysteamine hydrochloride]?
Villi Length, Small Intestines [1]: 2.15 ± 0.09^A; goblet cells in the small and large intestine vs non-Cysteamine-treated [1]: noticeably larger and highly distended; number and length of small intestinal villi vs non-Cysteamine treated [1]: more numerous and longer; daily weight gain ([2]; Test Group III: 6 g/head/day, p<0.05 vs Control, Test Group I & II): 1.217 kg; Feed Conversion Rate (FCR): Concentrated feed ([2]; Test I: 1.5 g/head/day): 3.54; Feed Conversion Rate (FCR): Corn Silage ([2]; Test I: 1.5 g/head/day): 14.14; Feed Conversion Rate (FCR): Raw Grass ([2]; Test I: 1.5 g/head/day): 1.21; Final Wt. ([2]; Test I: 1.5 g/head/day): 423.8 kg; Feed Conversion Rate (FCR): Concentrated feed ([2]; Test II: 3 g/head/day): 3.70^a; Feed Conversion Rate (FCR): Corn Silage ([2]; Test II: 3 g/head/day): 14.42^a; Feed Conversion Rate (FCR): Raw Grass ([2]; Test II: 3 g/head/day): 1.27^a; Final Wt. ([2]; Test II: 3 g/head/day): 420.5 kg; Feed Conversion Rate (FCR): Concentrated feed ([2]; Test III: 6 g/head/day): 3.09^b; Feed Conversion Rate (FCR): Corn Silage ([2]; Test III: 6 g/head/day): 12.87^b; Feed Conversion Rate (FCR): Raw Grass ([2]; Test III: 6 g/head/day): 1.06^a; Final Wt. ([2]; Test III: 6 g/head/day): 432.7 kg; Av. birth weight of piglets, kg [3, 4]: 1.737^a kg; Av. daily feed intake of sow during lactation, kg [3, 4]: 5.88^a kg; Av. daily gain of piglets [3, 4]: 355 g; Av. feed intake per piglets [3, 4]: 179 g; Av. live weight of piglets at weaning [3, 4]: 7.45 kg; Av. number of piglets born alive per litter [3, 4]: 11.10; Av. of piglet born per litter [3, 4]: 11.60; Av. overall weight loss of sow during lactation, kg [3, 4]: 14.25^b kg; Av. total birth weight of piglet per litter, kg [3, 4]: 19.10^a kg; Back fat loss of sow during lactation, mm: Overall [3, 4]: 0.867^b mm; Back fat loss of sow during lactation, mm: Week 1 [3, 4]: 0.165^b mm; Back fat loss of sow during lactation, mm: Week 2 [3, 4]: 0.588^b mm; Back fat loss of sow during lactation, mm: Week 3 [3, 4]: 0.114^b mm; Number of piglet weaning per litter [3, 4]: 10.20; Survival rate of piglets at weaning, % [3, 4]: 91.90%; Total number of piglet born alive per litter [3, 4]: 111; Total weight of piglets at weaning per litter, kg [3, 4]: 76.02^ab kg; Uniformity of live weight at weaning, % [3, 4]: 86.68^a %; Total of pigs born [3, 4]: 116; Av. of milk yield, L/d [3, 4]: 14.48^ab L/d; Total number of piglets at weaning [3, 4]: 102; Av. birth weight of piglets, kg [3, 5]: 1.782^a kg; Av. daily feed intake of sow during lactation, kg [3, 5]: 6.07^a kg; Av. daily gain of piglets [3, 5]: 366 g; Av. feed intake per piglets [3, 5]: 183 g; Av. live weight of piglets at weaning [3, 5]: 7.68 kg; Av. number of piglets born alive per litter [3, 5]: 10.70; Av. of piglet born per litter [3, 5]: 11.50; Av. overall weight loss of sow during lactation, kg [3, 5]: 13.58^b kg; Av. total birth weight of piglet per litter, kg [3, 5]: 18.88^a kg; Back fat loss of sow during lactation, mm: Overall [3, 5]: 0.829^b mm; Back fat loss of sow during lactation, mm: Week 1 [3, 5]: 0.171^b mm; Back fat loss of sow during lactation, mm: Week 2 [3, 5]: 0.548^b mm; Back fat loss of sow during lactation, mm: Week 3 [3, 5]: 0.110^b mm; Number of piglet weaning per litter [3, 5]: 10.40; Survival rate of piglets at weaning, % [3, 5]: 97.20%; Total number of piglet born alive per litter [3, 5]: 107; Total weight of piglets at weaning per litter, kg [3, 5]: 79.42^a kg; Uniformity of live weight at weaning, % [3, 5]: 86.95^a %; Total of pigs born [3, 5]: 115; Av. of milk yield, L/d [3, 5]: 15.13^a L/d; Total number of piglets at weaning [3, 5]: 104
